{"source": "patent US8846066B2", "about": "“Methods and related compositions for reduction of fat and skin tightening” (The Regents of the University of California, priority 2004, dated 2014)", "key": {"[1]": {"tested_on": "HaCaT human keratinocyte cells", "experiment": "MTS cell viability assay in cultured HaCaT cells", "type": "cell-based", "settings": "for cell viability (MTS, OD 490): 30 min at 37° C.", "method": "(§1) To measure cell viability after detergent treatment, HaCaT human keratinocyte cells were cultured in DMEM (Dulbecco's modified Eagle's medium) supplemented with 10% fetal calf serum, penicillin, and streptomycin. […] Cell viability was determined by an absorbance spectrophotometer (at 490 nm) after 4 hour incubation with the assay at 37° C. To determine cell viability in fresh tissue, fat specimens were incubated for 4 hours in 24 well plates with stock reagents and the MTS assay. Tissue specimens were then visualized for color change and the amount of MTS in their supernatants was measured by absorbance (at 490 nm). All studies were performed in triplicate. Absorbance at 490 nm (OD 490) is proportional to the number of living cells in the culture."}, "porcine fat tissue": {"tested_on": "porcine fat tissue", "experiment": "MTS assay in fresh porcine fat specimens", "type": "cell-based", "settings": "PBF or 5% solutions, 4 hours", "method": "as §1\nPorcine tissue was obtained immediately after sacrifice, shaved, and placed on ice for a maximum of four hours before use. […] Calcein retention was determined by tissue fluorescence using purple (411 nm) light and visually observing the emitted green (500 nm) light using an emission filters.\nFresh porcine skin was used to determine if the effects of these detergent substances on cultured cells were similar in tissue. […] The difference in fat cell viability between the solutions was quantified by measuring the absorbance (at 490) of the supernatants collected from the treated fat specimens (FIG. 3b). […]"}, "[2]": {"tested_on": "porcine skin (epidermis, dermis, subcutaneous tissue, muscle)", "experiment": "Histology of full thickness porcine skin after injection", "settings": "0.5 mL stock reagent injected, one hour at 37° C., H&E", "method": "Histology was performed by injecting stock reagent solutions (0.5 mL) into full thickness porcine skin at various levels (epidermis, dermis, and subcutaneous tissue) with 1.0 mL syringes and 30-gauge, 0.5 inch needles. Needle depth was visualized along the margin of the porcine tissue with the intent of saturating the target tissue. One hour after incubation with PBS at 37° C., multiple 5.0 mm biopsy specimens were obtained from the injected sites, each condition performed in triplicate. Tissue was fixed in formaldehyde, paraffin-embedded, and stained with hematoxylin-eosin. Specimens were evaluated by a board-certified dermatopathologist who was blinded to the treatment protocol."}, "lipomas [3]": {"tested_on": "lipomas", "experiment": "Injection of DC solutions into lipomas of patients (Example 4)", "type": "in vivo, human", "method": "Patients having lipomas, benign, isolated collections of adipose tissue, were injected with sodium deoxycholate (DC) solutions without phosphatidylcholine directly into the lipoma. […] A lipoma from one patient, injected with 1% DC, was excised after treatment and pathological and histological analysis performed. Within the excised lipoma, necrosis is visible grossly (FIG. 6a) with a well demarcated area of hemorrhage and necrosis on the lateral edge extending into the middle of the lipoma fat which contrasts with the normal lipoma fat which is lighter in color."}, "fat deposits": {"tested_on": "fat deposits", "experiment": "Injection of deoxycholate into facial fat deposits of an HIV lipodystrophy patient", "type": "in vivo, human", "settings": "1% deoxycholate, 1 month follow up, both sides", "method": "An HIV lipodystrophy patient with symmetrical fat deposits in their face just vental of their master muscle (sort of in their cheeks, like acorns in the mouth of a chipmunk) was injected with 1% deoxycholate. At 1 month follow up, there was a 50% apparent reduction in deposit volume on both sides."}, "WM266": {"tested_on": "WM266", "experiment": "Killing by DC after pre-incubation with human lipoma fat, WM266", "type": "cell-based", "method": "(§2) The experiment was performed on a series of immortalized melanocyte cell lines. Resected human lipomas were ground up, and DC-containing media was mixed with the human fat and agitated for 24 hours. The material was centrifuged to pellet insoluble contents. The supernatants were then added on top of cultured melanocytes. Control was the identical DC-containing media not exposed to the fat chunks. Also, fat alone (no media) was added as a control."}, "SKmel28": {"tested_on": "SKmel28", "experiment": "Killing by DC after pre-incubation with human lipoma fat, SKmel28", "type": "cell-based", "method": "as §2"}, "lipomas [4]": {"tested_on": "lipomas", "experiment": "Human lipoma study with sodium deoxycholate (Example 10)", "type": "in vivo", "method": "Six patients having 12 lipomas were injected with sodium deoxycholate (DC) solutions over a period of six months. […] Measurements were made by physical measurements and ultrasound imaging."}, "[5]": {"settings": "Control = 1.000, DC 0.1% media not exposed to fat"}, "[6]": {"settings": "Control = 1.000, DC 0.1% media pre-incubated with human lipoma fat"}, "[7]": {"settings": "DC 0.1% media not exposed to fat"}, "[8]": {"settings": "single wells, DC 0.1% media not exposed to fat"}, "[9]": {"settings": "single wells, supernatant of DC 0.1% media agitated 24 hours with human lipoma fat"}, "[10]": {"settings": "supernatant of DC 0.1% media agitated 24 hours with human lipoma fat"}, "[11]": {"settings": "Lipoma 1, pre-treatment size 1 cm, 1 treatment"}, "[12]": {"settings": "Lipoma 4, pre-treatment size 4 × 3.5 cm, 4 treatments"}, "[13]": {"settings": "Lipoma 5, pre-treatment size 2 × 1.8 cm, 4 treatments"}, "[14]": {"settings": "Lipoma 6, pre-treatment size 2.8 cm, 1 treatment"}, "[15]": {"settings": "Lipoma 7, pre-treatment size 3 × 2 cm, 2 treatments"}, "[16]": {"settings": "Lipoma 8, pre-treatment size 1 cm, 2 treatments"}, "[17]": {"settings": "Lipoma 10, pre-treatment size 2 cm, 2 treatments"}, "[18]": {"settings": "Lipoma 12, pre-treatment size 1 cm, 1 treatment"}}, "note": "Where “and” joins values, the source holds several entries; their conditions need not be identical. Identical values can stand only once.", "data": [{"smiles": "C[C@H](CCC(=O)[O-])[C@H]1CC[C@H]2[C@@H]3CC[C@@H]4C[C@H](O)CC[C@]4(C)[C@H]3C[C@H](O)[C@]12C.[Na+]", "note": "[DC, sodium deoxycholate]", "values": [{"measurement": "cell viability (MTS, OD 490)", "setting": "[1]; 0.005% dilution", "result": "little effect"}, {"measurement": "cell viability (MTS, OD 490)", "setting": "[1]; 0.05% and 0.5% concentrations", "result": "progressively decreased"}, {"measurement": "viability of cultured cells (MTS, FIG. 2a)", "setting": "[1]; approximately equal to the complete PBF", "result": "profoundly decreased the viability of cultured cells"}, {"measurement": "fat cell viability (MTS purple dye, absorbance at 490)", "setting": "porcine fat tissue", "result": "comparable loss of purple dye"}, {"measurement": "histologic changes in epidermis, dermis, adnexal structures", "setting": "[2]", "result": "no apparent affect"}, {"measurement": "histologic changes in fat", "setting": "[2]", "result": "Marked blurring and dissolution of adipocyte cell membranes"}, {"measurement": "Size(cm) Post-treatment", "setting": "lipomas [3]; Lipoma 5, pre-treatment 2.00 × 1.75, 2 treatments (1% DC)", "result": 1.25, "unit": "cm"}, {"measurement": "Size(cm) Post-treatment", "setting": "lipomas [3]; Lipoma 6, pre-treatment 2.80, 1 treatment (5% DC)", "result": 0.50, "unit": "cm"}, {"measurement": "Size(cm) Post-treatment", "setting": "lipomas [3]; Lipoma 7, pre-treatment 1.00, 1 treatment (1% DC)", "result": "Imperceptible"}, {"measurement": "size of injected lipomas", "setting": "lipomas [3]; after at least one treatment, varied concentrations of deoxycholate", "result": "reduced in size"}, {"measurement": "pathology and histology of excised lipoma", "setting": "lipomas [3]; one patient, 1% DC, removed two days after injection", "result": "well defined area of hemorrhage and necrotic fat"}, {"measurement": "apparent reduction in deposit volume", "setting": "fat deposits", "result": 50, "unit": "%"}, {"measurement": "Percentage, DC 0.1%", "setting": "WM266; [5]", "result": 0.113}, {"measurement": "Percentage, DC 0.1% + fat", "setting": "WM266; [6]", "result": 0.539}, {"measurement": "Average, DC 0.1%", "setting": "WM266; [7]", "result": 0.063}, {"measurement": "Actual, DC 0.1%", "setting": "WM266; [8]", "result": "0.07 and 0.061 and 0.058"}, {"measurement": "WM266 (readings), DC 0.1%", "setting": "WM266; [8]", "result": "0.07 and 0.061 and 0.058"}, {"measurement": "Actual, DC 0.1% + fat", "setting": "WM266; [9]", "result": "0.281 and 0.308 and 0.314"}, {"measurement": "WM266 (readings), DC 0.1% + fat", "setting": "WM266; [9]", "result": "0.281 and 0.308 and 0.314"}, {"measurement": "Average, DC 0.1% + fat", "setting": "WM266; [10]", "result": 0.301}, {"measurement": "Percentage, DC 0.1%", "setting": "SKmel28; [5]", "result": 0.098}, {"measurement": "Percentage, DC 0.1% + fat", "setting": "SKmel28; [6]", "result": 0.485}, {"measurement": "Average, DC 0.1%", "setting": "SKmel28; [7]", "result": 0.060}, {"measurement": "Actual, DC 0.1%", "setting": "SKmel28; [8]", "result": "0.061 and 0.060"}, {"measurement": "SKmel28 (readings), DC 0.1%", "setting": "SKmel28; [8]", "result": "0.061 and 0.060"}, {"measurement": "Actual, DC 0.1% + fat", "setting": "SKmel28; [9]", "result": "0.290 and 0.304 and 0.302"}, {"measurement": "SKmel28 (readings), DC 0.1% + fat", "setting": "SKmel28; [9]", "result": "0.290 and 0.304 and 0.302"}, {"measurement": "Average, DC 0.1% + fat", "setting": "SKmel28; [10]", "result": 0.299}, {"measurement": "Change in volume (%)", "setting": "lipomas [4]; [11]", "result": "−100", "unit": "%"}, {"measurement": "Post-treatment size", "setting": "lipomas [4]; [11]", "result": 0}, {"measurement": "Change in volume (%)", "setting": "lipomas [4]; Lipoma 3, pre-treatment size 2 × 2.5 cm, 3 treatments", "result": 84, "unit": "%"}, {"measurement": "Change in volume (%)", "setting": "lipomas [4]; [12]", "result": 84, "unit": "%"}, {"measurement": "Post-treatment size", "setting": "lipomas [4]; [12]", "result": 2}, {"measurement": "Change in volume (%)", "setting": "lipomas [4]; [13]", "result": 92, "unit": "%"}, {"measurement": "Post-treatment size", "setting": "lipomas [4]; [13]", "result": 1.3}, {"measurement": "Change in volume (%)", "setting": "lipomas [4]; [14]", "result": 99, "unit": "%"}, {"measurement": "Post-treatment size", "setting": "lipomas [4]; [14]", "result": 0.5}, {"measurement": "Change in volume (%)", "setting": "lipomas [4]; [15]", "result": 97, "unit": "%"}, {"measurement": "Post-treatment size", "setting": "lipomas [4]; [15]", "result": 0.8}, {"measurement": "Change in volume (%)", "setting": "lipomas [4]; [16]", "result": 100, "unit": "%"}, {"measurement": "Post-treatment size", "setting": "lipomas [4]; [16]", "result": 0}, {"measurement": "Change in volume (%)", "setting": "lipomas [4]; Lipoma 9, pre-treatment size 2 × 1 cm, 2 treatments", "result": 67, "unit": "%"}, {"measurement": "Change in volume (%)", "setting": "lipomas [4]; [17]", "result": 73, "unit": "%"}, {"measurement": "Post-treatment size", "setting": "lipomas [4]; [17]", "result": 1.3}, {"measurement": "Change in volume (%)", "setting": "lipomas [4]; Lipoma 11, pre-treatment size 2 cm, 1 treatment", "result": 79, "unit": "%"}, {"measurement": "Change in volume (%)", "setting": "lipomas [4]; [18]", "result": 50, "unit": "%"}, {"measurement": "Post-treatment size", "setting": "lipomas [4]; [18]", "result": 0.8}, {"measurement": "size of injected lipomas", "setting": "lipomas [4]; six patients, 12 lipomas, after at least one treatment, six months", "result": "reduced in size"}]}]}
